Data published in BindingDB's records for doi:10.1021/jm0010623 (Bayer, 2001).

Key:
[1] = molecular target: DNA gyrase (Micrococcus luteus); assay: Antibacterial activity against Micrococcus luteus DNA gyrase.
[2] = molecular target: DNA topoisomerase I (Escherichia coli); assay: Antibacterial activity against Escherichia coli DNA topoisomerase I
[3] = molecular target: DNA gyrase (Escherichia coli); assay: Antibacterial activity against Escherichia coli DNA gyrase

For COC(=O)c1c(Br)c(OC)cc(O)c1CSC[C@@H](Nc1nc(-c2ccc([N+](=O)[O-])cc2)cs1)C1=NOCCO1, the IC50 [1] was 62500 nM.
Molecule COC(=O)c1c(Br)c(OC)cc(O)c1CSC[C@H](Nc1nc(-c2ccc([N+](=O)[O-])cc2)cs1)C(=O)OC [BAY-507950] has an IC50 [2] of 195000 nM, an IC50 [3] of 489 nM and an IC50 [1] of 326 nM.
COC(=O)c1c(Br)c(OC)cc(O)c1CSC[C@H](Nc1nc(-c2ccc([N+](=O)[O-])cc2)cs1)C1=NOCCO1 [BAY-507952] was tested, and the IC50 [2] was 187000 nM, the IC50 [3] was 781 nM and the IC50 [1] was 625 nM.
In the case of COC(=O)c1c(Br)c(OC)cc(O)c1CSC[C@H](Nc1nc(-c2ccc([N+](=O)[O-])cc2)cs1)c1nc(C)no1 [Ro-616653], the IC50 [2] is reported as 188000 nM, the IC50 [3] is reported as 157 nM and the IC50 [1] is reported as 157 nM.
